Assay results taken from the supplement of paper PMC6206229.
Converted amounts (≈) assume the structure as drawn.

Tests used:
[1] = system: Staphylococcus aureus ATCC 29213 (MSSA); assay: minimum inhibitory concentration; extreme values may be limits of the assay
Method in brief: (§1)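 Broth microdilution in 96-well plates, following CLSI guidance with a resazurin redox read-out, was used to test methicillin-susceptible and methicillin-resistant Staphylococcus aureus. Compounds ranging from 0 to 100 µM were incubated with the bacteria at 37°C for 24 h, after which 30 µl of 0.015% resazurin was added for 2–4 h, and every plate carried positive controls. The minimum inhibitory concentration was taken as the lowest concentration at which wells stayed blue instead of turning pink, and runs were performed at least twice in triplicate.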

[2] = system: Staphylococcus aureus ATCC 700699 (MRSA); assay: as above
Method in brief: as §1

| Compound | minimum inhibitory concentration [1] | minimum inhibitory concentration [2] |
| --- | --- | --- |
| COC(=O)c1c(NC(=O)c2cc3ccccc3oc2=O)sc2c1CCN(Cc1ccccc1)C2 | > 50 µM | > 50 µM |
| CC(=O)N1CCN(c2ccc(Oc3ccc(Cl)cc3O)cc2)CC1 | > 50 µM | > 50 µM |
| CC(=O)N1CCc2cc3nc(C)cc(C)c3cc21 | > 50 µM | > 50 µM |
| COc1ccc(-c2cnc3ccc(NCc4ccc(S(N)(=O)=O)cc4)nn23)cn1 | > 50 µM | > 50 µM |
| COc1ccccc1CNC(=O)c1cc(C2CC2)nc2c1cnn2C(C)C | > 50 µM | > 50 µM |
| CC(Oc1cccc(Cl)c1)C(=O)Nc1ccc2oc(-c3ccncc3)nc2c1 (stereo not given) | > 50 µM | > 50 µM |
| COc1ccc(-c2nc(-c3cccc(NC(=O)Cc4ccc(F)cc4)c3)no2)cc1OC | > 50 µM | > 50 µM |
| N#Cc1ccc(-c2cnc(N)c(-c3ccc(C(N)=O)cc3)n2)cc1 | > 50 µM | > 50 µM |
| CNC(=O)C1Cc2ccccc2N1C(=O)Cc1ccc(F)cc1 (stereo not given) | > 50 µM | > 50 µM |
| Nc1ccc(C(=O)Nc2ccc(-c3nc4ccccc4o3)cc2)cc1 | > 50 µM | > 50 µM |
| Nc1ncnc2c1ncn2C[C@@H](O)[C@@H](O)C(=O)O | > 50 µM | > 50 µM |
| COc1cccn2c(C(=O)N3CCCCC3)c(C(F)(F)F)nc12 | > 50 µM | > 50 µM |
| CC(C)(C)n1nc(-c2ccccc2)c2c(N)ncnc21 | > 50 µM | > 50 µM |
| O=C(NC1CCN(c2ccnc3ccccc23)C1)c1cccc(C(F)(F)F)c1 (stereo not given) | > 50 µM | > 50 µM |
| CC(C)n1ncc2c(C(=O)NCC(c3cccs3)N3CCOCC3)cc(-c3ccccc3)nc21 (stereo not given) | > 50 µM | > 50 µM |
| CNc1cc(C)nc(C2CN(C(=O)c3n[nH]c4ccccc34)CCO2)c1 (stereo not given) | > 50 µM | > 50 µM |
| CC1CC1C(=O)NC1CCN(CC2(c3ccccc3)CCCCC2)CC1 (stereo not given) | > 50 µM | > 50 µM |
| CS(=O)(=O)c1ccccc1C(=O)N(Cc1ccccc1)c1ccccc1 | > 50 µM | > 50 µM |
| C[C@H]1COc2c(N3CCN(C)CC3)c(F)cc3c(=O)c(C(=O)O)cn1c23 | 0.78 µM (≈ 0.282 µg/mL) | 50 µM (≈ 18.1 µg/mL) |
| CCOc1ccc(-c2nc(NC(=O)CS(=O)(=O)c3ccccc3)sc2C)cc1 | > 50 µM | > 50 µM |
| CNC(=O)CNc1nc(-c2ccccn2)nc2scc(-c3ccccc3)c12 | > 50 µM | > 50 µM |
| Cn1ccnc1CNCCS(=O)(=O)c1cccc(Nc2ccc(-c3cccc(F)c3)cn2)c1 | > 50 µM | > 50 µM |
| COc1cc(C(F)(F)F)nc2ccc(C)c(N)c12 | > 50 µM | > 50 µM |
| FC(F)(F)c1cc(NCCc2ccccc2)nc(-c2ccccn2)n1 | > 50 µM | > 50 µM |

| Compound | minimum inhibitory concentration [1] | minimum inhibitory concentration [2] |
| --- | --- | --- |
| Cc1cc(C)c2cc(C(=O)NC3CCCCCCC3)[nH]c2c1 | > 50 µM | > 50 µM |
| COC(=O)Nc1nc2cc(C(=O)c3ccccc3)ccc2[nH]1 | > 50 µM | > 50 µM |
| COc1ccc(-c2cncc3ccc(C(=O)NCCCn4ccnc4)nc23)cc1 | > 50 µM | > 50 µM |
| CCCn1c(NC(=O)c2ccc3ccccc3n2)nc2ccccc21 | > 50 µM | > 50 µM |
| O=C(c1cc2ccccc2o1)N1CCN(Cc2ccc3c(c2)OCO3)CC1 | > 50 µM | > 50 µM |
| OC[C@H]1O[C@@H](n2c3ccc(Cl)cc3c3c(-c4cc5ccccc5o4)ncnc32)C(O)[C@H]1O (stereo not given in full) | > 50 µM | > 50 µM |
| Cc1ccc(S(=O)(=O)Nc2ccc(CN3CCN(C(=O)c4cccc(C#N)c4)CC3)cc2)cc1 | > 50 µM | > 50 µM |
| FC(F)(F)c1cccc(-c2nc3c(NCc4ccncc4)nccc3[nH]2)c1 | > 50 µM | > 50 µM |
| Cc1nn2c(O)c3c(nc2c1-c1ccc(F)cc1)CCCC3 | > 50 µM | > 50 µM |
| Cc1cccc(C(=O)Nc2ccnc(N(C)C3CCN(CC(C)C)CC3)c2)c1 | > 50 µM | > 50 µM |
| CC[C@@H]([C@H](C)O)n1ncn(-c2ccc(N3CCN(c4ccc(OC[C@@H]5CO[C@@](Cn6cncn6)(c6ccc(F)cc6F)C5)cc4)CC3)cc2)c1=O | > 50 µM | > 50 µM |
| CC(=O)Oc1ccccc1C(=O)Nc1ncc([N+](=O)[O-])s1 | > 50 µM | > 50 µM |
| CCCn1nnc(NC(=O)COc2ccc(C3CCCCC3)cc2)n1 | > 50 µM | > 50 µM |
| Cc1nn(C(=O)Nc2cccc(C(F)(F)F)c2)c(C)c1Sc1ncccn1 | > 50 µM | > 50 µM |
| Cc1ccccc1CN1CCC(O)(c2ccc(Cl)c(C(F)(F)F)c2)CC1 | > 50 µM | > 50 µM |
| Cc1cc(C2=NOC(c3cc(Cl)c(F)c(Cl)c3)(C(F)(F)F)C2)ccc1C(=O)NCc1ccc2c(c1)C(C)(C)OB2O (stereo not given) | > 50 µM | > 50 µM |
| NC(CC(=O)c1ccc(Cl)cc1Cl)C(Cl)(Cl)Cl (stereo not given) | > 50 µM | > 50 µM |
| COc1cccc2c(C)nc(N=C(N)N)nc12 | > 50 µM | > 50 µM |
| NC(=O)c1cc(Br)ccc1OCCOc1ccccc1 | > 50 µM | > 50 µM |
| Cc1cc(C(=O)Nc2cnn(Cc3ccc(Cl)cc3Cl)c2)no1 | > 50 µM | > 50 µM |
| Cc1ncc(-c2ccnc(Nc3ccc(S(C)(=O)=O)cc3)n2)n1C(C)C | > 50 µM | > 50 µM |
| N#Cc1nc(-c2ccccc2F)oc1NCCc1ccccc1 | > 50 µM | > 50 µM |
| Cc1ccc(-c2cc(C(=O)Nc3cccnc3)c3cc(Br)ccc3n2)cc1 | 50 µM (≈ 20.9 µg/mL) | 50 µM (≈ 20.9 µg/mL) |
| COc1cccc(OC)c1C(=O)Nc1ccc(Cl)c(-c2nc3ccccc3s2)c1 | > 50 µM | > 50 µM |

| Compound | minimum inhibitory concentration [1] | minimum inhibitory concentration [2] |
| --- | --- | --- |
| c1ccc2c(c1)CN(CC1CC1)CC1(CCN(Cc3c[nH]c4cnccc34)CC1)O2 | 50 µM (≈ 20.1 µg/mL) | 50 µM (≈ 20.1 µg/mL) |
| CNc1snc(C)c1C(=O)NCCOc1ccc(OC)cc1 | > 50 µM | > 50 µM |
| COc1cc(C2=NCCN2)cc2cc(-c3ccc(C4=NCCN4)cc3)oc12 | > 50 µM | > 50 µM |
| N#Cc1nc(-c2ccccc2)oc1S(=O)(=O)c1ccc(Cl)cc1 | > 50 µM | > 50 µM |
| O=C(Nc1cccnc1)c1c(O)c2cccc3c2n(c1=O)CC3 | 25 µM (≈ 7.68 µg/mL) | 50 µM (≈ 15.4 µg/mL) |
| COc1cc2ncnc(NC3CCN(Cc4ccccc4)CC3)c2cc1OC | > 50 µM | > 50 µM |
| Cc1nc2ccccn2c1C(=O)NCc1ccc(Cl)cc1 | > 50 µM | > 50 µM |
| C[C@H](C(N)=O)N1CCCC[C@@H]1c1ccc(OCc2cccc(F)c2)cc1 | > 50 µM | > 50 µM |
| CNC(=O)C1Cc2c([nH]c3cc(Cl)ccc23)C2(CCN(CCc3ccccc3)CC2)N1 (stereo not given) | > 50 µM | > 50 µM |
| CN1CCN(c2nccc3nc(-c4ccc(F)c(F)c4)[nH]c23)CC1 | > 50 µM | > 50 µM |
| CCOc1ccc(-c2nc(CNCCc3ccc(F)cc3)cs2)cc1 | > 50 µM | > 50 µM |
| Cc1nc(-c2ccccn2)nc(N2CCC(Cc3ccccc3)C2)c1Cl (stereo not given) | > 50 µM | > 50 µM |
| CC(=O)Nc1ccc(NC(=O)c2cc(-c3cc(Cl)ccc3O)n[nH]2)cc1 | > 50 µM | > 50 µM |
| O=C(c1ccc(NCCO)cc1)C1C[C@H]1c1ccc(Cl)cc1 (stereo not given in full) | > 50 µM | > 50 µM |
| Cc1nn(C)c(C)c1NS(=O)(=O)c1c(Cl)cc(-c2ccnc(N3CCNCC3)c2)cc1Cl | > 50 µM | > 50 µM |
| Cc1cc(C)nc(-n2nc(C)cc2Nc2ccccc2)n1 | > 50 µM | > 50 µM |
| CCc1ccc([C@@H]2C[C@H](C(F)(F)F)n3ncc(C(=O)NCc4ccc(OC)cc4)c3N2)cc1 | > 50 µM | > 50 µM |
| CCN(CC)S(=O)(=O)c1ccc(C(=O)Nc2cc(C)nn2-c2nc(C)c(C)c(=O)[nH]2)cc1 | 50 µM (≈ 22.9 µg/mL) | 50 µM (≈ 22.9 µg/mL) |
| C[C@H](C(N)=O)N1CCCC[C@H]1c1ccc(OCc2cccc(F)c2)cc1 | > 50 µM | > 50 µM |
| O=C1COCc2ccc(Br)cc2N1Cc1ccc(C(F)(F)F)cc1 | > 50 µM | > 50 µM |
| CN(C)c1cc(NC(=O)Nc2ccccc2)c2ccccc2n1 | > 50 µM | > 50 µM |
| Brc1c(-c2ccc3c(c2)OCO3)nc2ncccn12 | > 50 µM | > 50 µM |
